For assay [1], the system named is Klebsiella aerogenes. The experiment in a line: Compound was tested in vitro for its minimum inhibitory concentration by serial 2-fold agar dilution Muller Hinton method against Klebsiella aerogenes 1522 E. It counts as functional.
The subject of assay [2] is Pseudomonas aeruginosa. In words: Compound was tested in vitro for its minimum inhibitory concentration by serial 2-fold agar dilution Muller Hinton method against Pseudomonas aeruginosa 1592 E. The class given is functional.
The subject of assay [3] is Escherichia coli. The experiment in a line: Compound was tested in vitro for its minimum inhibitory concentration by serial 2-fold agar dilution Muller Hinton method against Escherichia coli DC 0. It counts as functional. Background: In agar dilution the substance is mixed into plates at graded concentrations.
Assay [4] relates to Pseudomonas aeruginosa. The experiment in a line: Compound was tested in vitro for its minimum inhibitory concentration by serial 2-fold agar dilution Muller Hinton method against Pseudomonas aeruginosa 9027. The class given is functional.
Assay [5] has as its system Escherichia coli. In words: Compound was tested in vitro for its minimum inhibitory concentration by serial 2-fold agar dilution Muller Hinton method against Escherichia coli TEM. The class given is functional.
Assay [6] has as its system Salmonella typhimurium. In words: Compound was tested in vitro for its minimum inhibitory concentration by serial 2-fold agar dilution Muller Hinton method against Salmonella Typhimurium. The class given is functional, Salmonella enterica subsp. enterica serovar Typhimurium. The note with it: Salmonella enterica.
For assay [7], the system named is Staphylococcus aureus. The experiment in a line: Compound was tested in vitro for its minimum inhibitory concentration by serial 2-fold agar dilution Muller Hinton method against Staphylococcus aureus SG511. The class given is functional.
In assay [8] the test system is Streptococcus pyogenes. The experiment in a line: Compound was tested in vitro for its minimum inhibitory concentration by serial 2-fold agar dilution Muller Hinton method against Streptococcus pyogenes A77. The class given is functional.
Assay [9] concerns Pseudomonas aeruginosa. The experiment in a line: Compound was tested in vitro for its minimum inhibitory concentration by serial 2-fold agar dilution Muller Hinton method against Pseudomonas aeruginosa 1771 M. The class given is functional.
Assay [10] concerns Staphylococcus aureus. The experiment in a line: Compound was tested in vitro for its minimum inhibitory concentration by serial 2-fold agar dilution Muller Hinton method against Staphylococcus aureus 285. It counts as functional.
The subject of assay [11] is Escherichia coli. In words: Compound was tested in vitro for its minimum inhibitory concentration by serial 2-fold agar dilution Muller Hinton method against Escherichia coli O 55. It counts as functional.
Assay [12] concerns Staphylococcus aureus. In words: Compound was tested in vitro for its minimum inhibitory concentration by serial 2-fold agar dilution Muller Hinton method against Staphylococcus aureus 503. The class given is functional.
Assay [13] deals with Escherichia coli. In words: Compound was tested in vitro for its minimum inhibitory concentration by serial 2-fold agar dilution Muller Hinton method against Escherichia coli 1507E. It counts as functional.
In assay [14] the test system is Escherichia coli. The experiment in a line: Compound was tested in vitro for its minimum inhibitory concentration by serial 2-fold agar dilution Muller Hinton method against Escherichia coli DC 2. The class given is functional.
In assay [15] the test system is Pseudomonas aeruginosa. In words: Compound was tested in vitro for its minimum inhibitory concentration by serial 2-fold agar dilution Muller Hinton method against Pseudomonas aeruginosa 1771. The class given is functional.
Assay [16] concerns Streptococcus pyogenes. The experiment in a line: Compound was tested in vitro for its minimum inhibitory concentration by serial 2-fold agar dilution Muller Hinton method against Streptococcus pyogenes A 308. The class given is functional.
The test system of assay [17] is Enterobacter cloacae. The experiment in a line: Compound was tested in vitro for its minimum inhibitory concentration by serial 2-fold agar dilution Muller Hinton method against Enterobacter cloacae P99. It counts as functional.
Assay [18] has as its system Streptococcus pyogenes. In words: Compound was tested in vitro for its minimum inhibitory concentration by serial 2-fold agar dilution Muller Hinton method against Streptococcus pyogenes 8b. It counts as functional.
The test system of assay [19] is Enterobacter cloacae. In words: Compound was tested in vitro for its minimum inhibitory concentration by serial 2-fold agar dilution Muller Hinton method against Enterobacter cloacae 1321. The class given is functional.
Assay [20] concerns Klebsiella oxytoca. In words: Compound was tested in vitro for its minimum inhibitory concentration by serial 2-fold agar dilution Muller Hinton method against Klebsiella oxytoca 1082 E. The class given is functional.

Molecules are shown by their SMILES. ≈ marks a conversion by molar mass, not a printed value.

In the case of `CO/N=C(\C(=O)NC1C(=O)N2C(C(=O)[O-])=C(CN(C)c3scc[n+]3C)CSC12)c1csc(N)n1` (stereo not given), the MIC in assay [1] was 0.098 µg/mL (≈ 0.187 µM); in assay [2], 50 µg/mL (≈ 95.5 µM); in [3], 0.098 µg/mL (≈ 0.187 µM); in assay [4], 50 µg/mL (≈ 95.5 µM); in assay [5], 0.098 µg/mL (≈ 0.187 µM); in [6], 0.098 µg/mL (≈ 0.187 µM). Besides, the MIC in [7] was determined as 1.56 µg/mL (≈ 2.98 µM); in assay [8], 0.007 µg/mL (≈ 0.0134 µM); in [9] it was 1.56 µg/mL (≈ 2.98 µM); in assay [10], 3.12 µg/mL (≈ 5.97 µM); in assay [11], 0.025 µg/mL (≈ 0.0477 µM); in assay [12], 0.391 µg/mL (≈ 0.747 µM). In addition, the MIC in assay [13] was 0.098 µg/mL (≈ 0.187 µM); in [14], 0.098 µg/mL (≈ 0.187 µM); in assay [15] it was 25 µg/mL (≈ 47.7 µM); in assay [16], 0.007 µg/mL (≈ 0.0134 µM); in assay [17], 50 µg/mL (≈ 95.5 µM); in assay [18], greater than 100 µg/mL. In addition, the values for the MIC in assay [19] and in assay [20] were 0.049 µg/mL (≈ 0.0936 µM) and 25 µg/mL (≈ 47.7 µM), respectively.

For the compound `CO/N=C(\C(=O)NC1C(=O)N2C(C(=O)[O-])=C(CN(C)c3sc4c([n+]3C)CCCC4)CSC12)c1csc(N)n1` (stereo not given), the MIC came to 0.025 µg/mL (≈ 0.0433 µM) in [1]; 25 µg/mL (≈ 43.3 µM) in assay [2]; 0.049 µg/mL (≈ 0.0848 µM) in assay [3]; 50 µg/mL (≈ 86.5 µM) in assay [4]; 0.049 µg/mL (≈ 0.0848 µM) in assay [5]; 0.049 µg/mL (≈ 0.0848 µM) in assay [6]. Moreover, the MIC worked out at 0.391 µg/mL (≈ 0.677 µM) in assay [7]; 0.007 µg/mL (≈ 0.0121 µM) in [8]; 0.781 µg/mL (≈ 1.35 µM) in assay [9]; 0.781 µg/mL (≈ 1.35 µM) in [10]; 0.025 µg/mL (≈ 0.0433 µM) in [11]; 0.195 µg/mL (≈ 0.338 µM) in assay [12]. In addition, the MIC was determined as 0.049 µg/mL (≈ 0.0848 µM) in [13]; 0.025 µg/mL (≈ 0.0433 µM) in assay [14]; 6.25 µg/mL (≈ 10.8 µM) in assay [15]; 0.007 µg/mL (≈ 0.0121 µM) in assay [16]; 6.25 µg/mL (≈ 10.8 µM) in [17]; 12.5 µg/mL (≈ 21.6 µM) in [18]. Besides, the MIC was found to be 0.013 µg/mL (≈ 0.0225 µM) in [19] and 3.12 µg/mL (≈ 5.41 µM) in [20].

On to `CCO/N=C(\C(=O)NC1C(=O)N2C(C(=O)[O-])=C(CN(C)c3sc(C(=O)OCC)c(C)[n+]3C)CSC12)c1csc(N)n1` (stereo not given), for which the MIC is 0.049 µg/mL (≈ 0.0786 µM) in [1]; 50 µg/mL (≈ 80.2 µM) in assay [2]; 0.098 µg/mL (≈ 0.157 µM) in assay [3]; 100 µg/mL (≈ 160 µM) in assay [4]; 0.195 µg/mL (≈ 0.313 µM) in assay [5]; 0.049 µg/mL (≈ 0.0786 µM) in assay [6]. Besides, the MIC worked out at 1.56 µg/mL (≈ 2.51 µM) in [7]; 0.004 µg/mL (≈ 0.00641 µM) in [8]; 1.56 µg/mL (≈ 2.51 µM) in assay [9]; 1.56 µg/mL (≈ 2.51 µM) in [10]; 0.049 µg/mL (≈ 0.0786 µM) in assay [11]; 0.781 µg/mL (≈ 1.25 µM) in assay [12]. The MIC in assay [13] was 0.098 µg/mL (≈ 0.157 µM); in [14] it was 0.049 µg/mL (≈ 0.0786 µM); in assay [15], 25 µg/mL (≈ 40.1 µM); in assay [16], 0.007 µg/mL (≈ 0.0112 µM); in assay [17] it was 3.12 µg/mL (≈ 5.01 µM); in [18], 25 µg/mL (≈ 40.1 µM). Besides, the figures for the MIC in assay [19] and in assay [20] were 0.025 µg/mL (≈ 0.0401 µM) and 6.25 µg/mL (≈ 10 µM), respectively.

Take `C=CCO/N=C(\C(=O)NC1C(=O)N2C(C(=O)[O-])=C(CN(C)c3sc4c([n+]3C)CCCC4)CSC12)c1csc(N)n1` (stereo not given): the MIC in assay [1] turned out to be 0.195 µg/mL (≈ 0.323 µM); in [2] it was 50 µg/mL (≈ 82.8 µM); in [3] it was 0.391 µg/mL (≈ 0.648 µM); in assay [4] it was 50 µg/mL (≈ 82.8 µM); in assay [5] it was 0.391 µg/mL (≈ 0.648 µM); in assay [6], 0.195 µg/mL (≈ 0.323 µM). Besides, the MIC in assay [7] came to 0.391 µg/mL (≈ 0.648 µM); in [8], 0.004 µg/mL (≈ 0.00663 µM); in [9], 0.781 µg/mL (≈ 1.29 µM); in assay [10], 0.781 µg/mL (≈ 1.29 µM); in assay [11] it was 0.049 µg/mL (≈ 0.0812 µM); in [12], 0.195 µg/mL (≈ 0.323 µM). The MIC in assay [13] is 0.391 µg/mL (≈ 0.648 µM); in [14] it was 0.025 µg/mL (≈ 0.0414 µM); in assay [15], 6.25 µg/mL (≈ 10.4 µM); in assay [16], 0.004 µg/mL (≈ 0.00663 µM); in [17], 12.5 µg/mL (≈ 20.7 µM); in [18] it was 50 µg/mL (≈ 82.8 µM). Besides, the MIC was 0.049 µg/mL (≈ 0.0812 µM) in assay [19] and 6.25 µg/mL (≈ 10.4 µM) in assay [20].

As to `CCO/N=C(\C(=O)NC1C(=O)N2C(C(=O)[O-])=C(CN(C)c3scc(C)[n+]3C)CSC12)c1csc(N)n1` (stereo not given), the MIC was found to be 0.049 µg/mL (≈ 0.0888 µM) in assay [1]; 12.5 µg/mL (≈ 22.7 µM) in assay [2]; 0.098 µg/mL (≈ 0.178 µM) in [3]; 25 µg/mL (≈ 45.3 µM) in assay [4]; 0.098 µg/mL (≈ 0.178 µM) in assay [5]; 0.049 µg/mL (≈ 0.0888 µM) in assay [6]. Moreover, the MIC in assay [7] is 0.781 µg/mL (≈ 1.42 µM); in assay [8], 0.013 µg/mL (≈ 0.0236 µM); in assay [9], 0.391 µg/mL (≈ 0.709 µM); in assay [10], 1.56 µg/mL (≈ 2.83 µM); in assay [11], 0.025 µg/mL (≈ 0.0453 µM); in assay [12], 0.391 µg/mL (≈ 0.709 µM). The minimal inhibitory concentration (MIC) amounted to 0.098 µg/mL (≈ 0.178 µM) in [13]; 0.025 µg/mL (≈ 0.0453 µM) in assay [14]; 3.12 µg/mL (≈ 5.66 µM) in assay [15]; 0.013 µg/mL (≈ 0.0236 µM) in assay [16]; 25 µg/mL (≈ 45.3 µM) in [17]; 50 µg/mL (≈ 90.6 µM) in [18]. For the same compound, the MIC is 0.025 µg/mL (≈ 0.0453 µM) in [19] and 6.25 µg/mL (≈ 11.3 µM) in assay [20].

The MIC is the least concentration at which growth counts as inhibited. Read a high MIC as a need for much substance.

These data come from ChEMBL document CHEMBL1133057, “Synthesis and in vitro antibacterial activity of 3-[N-methyl-N-(3-methyl-1,3-thiazolium-2-yl)aminolmethyl cephalosporin derivatives” (2000).
